Assay results reported in ChEMBL document CHEMBL1201862, “PubChem BioAssay data set” (2004).
Activity calls are given as the source filed them.

Experiments:
[1] = system: Vero; experiment: host cell cytotoxicity of antiviral hits, dose response, cytotoxicity control for West Nile virus antiviral project, secondary assay (AID 1650); assay type: functional; conditions: Chlorocebus sabaeus
[2] = target: T1, DNA repair protein RAD52 homolog (Homo sapiens, UniProt P43351); assay type: functional, biochemical
T1 sequence (P43351 whole entry): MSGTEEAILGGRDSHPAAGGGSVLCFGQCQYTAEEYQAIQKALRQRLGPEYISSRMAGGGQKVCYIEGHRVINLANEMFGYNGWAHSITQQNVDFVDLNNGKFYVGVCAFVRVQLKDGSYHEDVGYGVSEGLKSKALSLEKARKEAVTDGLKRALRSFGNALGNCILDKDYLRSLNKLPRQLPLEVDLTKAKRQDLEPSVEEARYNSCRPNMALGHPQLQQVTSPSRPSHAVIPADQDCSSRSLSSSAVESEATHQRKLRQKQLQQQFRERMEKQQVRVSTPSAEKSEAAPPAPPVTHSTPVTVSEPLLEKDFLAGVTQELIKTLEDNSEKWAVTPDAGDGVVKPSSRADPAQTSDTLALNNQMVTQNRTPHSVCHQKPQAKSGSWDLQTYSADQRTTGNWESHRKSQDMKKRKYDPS

[3] = target: Delta-type opioid receptor (Homo sapiens, UniProt P41143); experiment: Counterscreen for agonists of heterodimerization of the mu 1 (OPRM1) and delta 1 (OPRD1) opioid receptors: Luminescence-based cell-based high throughput dose response assay to identify agonists of OPRD1 homodimerization. [Related pubchem assays (depositor defined):AID504326, AID504355, AID504692, AID504904, AID504905]; assay type: functional
[4] = MDA-MB-231 cell growth inhibition, dose response, cytotoxicity control for RAD54 inhibitor project, CellTiter-Glo luminescence, cherry-pick (AID 651692); assay type: functional, cell-based
[5] = target: 5-hydroxytryptamine receptor 5A (Homo sapiens, UniProt P47898); experiment: Counterscreen for agonists of OPRM1-OPRD1 heterodimerization: luminescence-based cell-based high throughput dose response assay to identify agonists of 5-hydroxytryptamine (serotonin) 5A receptor (HTR5A). [Related pubchem assays (depositor defined):AID504326, AID504355, AID504692, AID504904, AID504905]; assay type: functional
[6] = target: DNA repair and recombination protein RAD54-like (Homo sapiens, UniProt Q92698); experiment: inhibitors of human RAD54 branch migration, confirmation, biochemical, fluorescence, cherry-picked samples, dose series (AID 651657); assay type: functional
[7] = target: Mu-type opioid receptor (Homo sapiens, UniProt P35372); experiment: Counterscreen for agonists of heterodimerization of the mu 1 (OPRM1) and delta 1 (OPRD1) opioid receptors: Luminescence-based cell-based high throughput dose response assay to identify agonists of OPRM1 homodimerization.; assay type: functional;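 note: U2OS cells expressing OPRM1 and beta-arrestin as split beta-galactosidase partners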
[8] = system: INS1; experiment: beta cell apoptosis inhibitors, cytokine rescue, dose response, luminescence, retest (AID 449756); assay type: functional, cell-based; conditions: Rattus norvegicus;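 note: cell death triggered by IL-1 beta plus TNF-alpha plus IFN-gamma mixture; protective hits raise ATP signal compared with cytokine alone wells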
[9] = target: T2, Probable nicotinate-nucleotide adenylyltransferase (Staphylococcus aureus (strain N315), UniProt P65502); assay type: functional, Staphylococcus aureus subsp. aureus N315; conditions: read-out: IC50_Mean;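 for IC50 Mean: confirmatory dose-response retesting of NadD inhibitor hits first found in an ultra-high-throughput screen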
[10] = target: T2, Probable nicotinate-nucleotide adenylyltransferase; assay type: functional, Staphylococcus aureus subsp. aureus N315
[11] = target: Voltage-gated inwardly rectifying potassium channel KCNH2 (Homo sapiens, UniProt Q12809); conditions: Potency;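 note: confirmatory quantitative high-throughput screen measuring inhibition of hERG channel activity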
[12] = cytotoxicity toward NIH3T3 fibroblasts, dose response, counter-screen, cell-based, ATP luminescence, mouse fibroblasts (AID 2010); assay type: functional;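 note: cells exposed to compound for about 90 hours before reading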
[13] = target: Large T antigen (Simian virus 40, UniProt P03070); assay type: functional, Betapolyomavirus macacae;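 note: Confirmatory-stage PubChem screen for compounds that inhibit SV40 T antigen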
[14] = target: Nonstructural protein 1 (Influenza A virus, UniProt Q194T2); assay type: functional, Influenza A virus (A/California/07/2009(H1N1))
[15] = target: Glucose-6-phosphate 1-dehydrogenase (Homo sapiens, UniProt P11413); experiment: human G6PD enzyme inhibitors, dose response, selectivity assay for P. falciparum G6PD inhibitor project, biochemical, fluorescence (AID 504792); assay type: functional
[16] = target: Cytochrome P450 3A4 (Homo sapiens, UniProt P08684); conditions: Potency;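 note: confirmatory qHTS run detecting inhibitors and substrates of CYP3A4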
[17] = THP-1 cell cytotoxicity, dose response, cytotoxicity control for Vif-APOBEC3G degradation inhibitor project, THP-1 cells (AID 1117359); assay type: functional; conditions: Human immunodeficiency virus 1, THP-1
[18] = inhibitors of intracellular T. cruzi replication, confirmation, NIH3T3 host cells, beta-gal luminescence (AID 2044); assay type: functional, cell-based;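 note: intracellular parasites grown in NIH/3T3 mouse fibroblasts as host cells; luminescent beta-galactosidase reporter signal from transgenic T. cruzi replicating inside host cells; inhibitors lower the luminescence signal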
[19] = target: T3, Replicative DNA helicase DnaB (Mycobacterium tuberculosis, UniProt P9WMR3); experiment: DnaB intein splicing inhibitors, dose response, biochemical, cell-free fluorescence (AID 449749); assay type: functional
T3 sequence (P9WMR3 whole entry): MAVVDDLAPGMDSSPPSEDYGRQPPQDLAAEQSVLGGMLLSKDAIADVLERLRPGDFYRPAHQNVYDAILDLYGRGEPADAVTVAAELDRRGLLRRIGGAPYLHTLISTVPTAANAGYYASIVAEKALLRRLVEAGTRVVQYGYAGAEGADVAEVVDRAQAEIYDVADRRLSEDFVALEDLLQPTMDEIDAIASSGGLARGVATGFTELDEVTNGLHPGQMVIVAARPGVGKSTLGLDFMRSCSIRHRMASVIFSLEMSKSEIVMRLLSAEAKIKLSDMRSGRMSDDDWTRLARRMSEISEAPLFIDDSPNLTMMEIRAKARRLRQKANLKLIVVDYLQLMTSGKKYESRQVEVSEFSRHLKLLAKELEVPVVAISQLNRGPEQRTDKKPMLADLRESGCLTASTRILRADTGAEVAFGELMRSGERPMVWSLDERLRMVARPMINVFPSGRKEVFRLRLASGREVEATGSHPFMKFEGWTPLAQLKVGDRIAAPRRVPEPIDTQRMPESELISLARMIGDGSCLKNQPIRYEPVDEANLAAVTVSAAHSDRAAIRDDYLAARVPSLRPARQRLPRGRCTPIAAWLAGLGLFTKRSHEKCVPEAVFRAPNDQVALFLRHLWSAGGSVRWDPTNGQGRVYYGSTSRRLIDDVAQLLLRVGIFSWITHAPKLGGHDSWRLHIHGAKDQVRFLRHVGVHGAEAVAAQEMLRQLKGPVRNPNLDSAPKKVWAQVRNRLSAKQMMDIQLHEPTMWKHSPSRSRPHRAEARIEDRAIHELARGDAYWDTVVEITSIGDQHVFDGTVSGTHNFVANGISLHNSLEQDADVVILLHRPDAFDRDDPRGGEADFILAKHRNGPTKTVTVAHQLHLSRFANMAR

[20] = target: Glutathione-S-transferase (Schistosoma japonicum, UniProt Q26513); experiment: biotin-GST/anti-GST TR-FRET signal inhibitors, dose response, artefact control for Vif-APOBEC3G degradation inhibitor project, biochemical (AID 1117362); assay type: functional
[21] = target: Aryl hydrocarbon receptor (Homo sapiens, UniProt P35869); conditions: Potency;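 note: confirmatory quantitative high-throughput screen measuring activation of the AhR signaling pathway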
[22] = target: T4, Protein RecA (Mycobacterium tuberculosis, UniProt P9WHJ3); experiment: Fluorescence Cell-Free Homogeneous Dose Retest to Identify Inhibitors of RecA-Intein Splicing Activity. [Related pubchem assays (depositor defined):AID2097, AID2223, AID489010, AID492950]; assay type: functional
T4 sequence (P9WHJ3 whole entry): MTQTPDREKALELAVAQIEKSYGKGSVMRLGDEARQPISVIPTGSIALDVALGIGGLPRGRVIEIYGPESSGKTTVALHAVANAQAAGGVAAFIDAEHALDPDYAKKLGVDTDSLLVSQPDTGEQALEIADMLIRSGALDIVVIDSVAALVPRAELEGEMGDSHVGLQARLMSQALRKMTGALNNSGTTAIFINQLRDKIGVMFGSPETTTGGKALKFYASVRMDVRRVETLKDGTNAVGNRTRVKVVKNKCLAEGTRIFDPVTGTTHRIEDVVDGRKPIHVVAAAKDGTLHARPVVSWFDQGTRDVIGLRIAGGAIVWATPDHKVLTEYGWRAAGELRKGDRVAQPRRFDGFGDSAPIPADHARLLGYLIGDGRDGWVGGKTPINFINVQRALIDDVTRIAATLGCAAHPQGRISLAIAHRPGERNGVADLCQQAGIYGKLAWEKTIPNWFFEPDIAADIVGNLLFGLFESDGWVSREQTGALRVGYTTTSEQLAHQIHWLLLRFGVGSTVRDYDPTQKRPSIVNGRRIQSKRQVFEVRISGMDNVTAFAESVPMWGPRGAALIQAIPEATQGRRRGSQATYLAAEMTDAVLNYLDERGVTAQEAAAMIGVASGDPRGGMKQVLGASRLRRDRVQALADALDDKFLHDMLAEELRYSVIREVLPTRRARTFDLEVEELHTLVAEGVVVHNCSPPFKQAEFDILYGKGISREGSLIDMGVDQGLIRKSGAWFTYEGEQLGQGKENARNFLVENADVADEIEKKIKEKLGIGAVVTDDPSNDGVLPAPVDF

[23] = target: T5, ATP-dependent translocase ABCB1 (Homo sapiens, UniProt P08183); experiment: ABCG2 efflux pump inhibitor potency, dose response, Ig-MXP3 cells, JC-1, flow cytometry, set 2 (AID 504566); assay type: functional; conditions: read-out: EC50_MICROM_;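 note: flow cytometry median green fluorescence of retained JC-1 dye; potency of efflux pump inhibition measured as rising substrate retention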
[24] = target: T5, ATP-dependent translocase ABCB1; experiment: ABCB1 efflux inhibitor potency, dose response, Jurkat-DNR cells, JC-1, flow cytometry, set 2 (AID 504569); assay type: functional; conditions: read-out: EC50_MICROM_;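 note: potency of pump inhibitors that raise cellular JC-1 green fluorescence up to the nicardipine level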
[25] = target: T6, Low molecular weight phosphotyrosine protein phosphatase (Homo sapiens, UniProt P24666); assay type: functional; conditions: read-out: IC50_Mean
T6 sequence (P24666 whole entry): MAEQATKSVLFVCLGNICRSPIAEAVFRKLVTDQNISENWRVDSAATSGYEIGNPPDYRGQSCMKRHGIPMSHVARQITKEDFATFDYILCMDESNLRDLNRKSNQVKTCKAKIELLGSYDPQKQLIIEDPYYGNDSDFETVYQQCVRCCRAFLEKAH

[26] = target: Small ubiquitin-related modifier 2 (Homo sapiens, UniProt P61956); experiment: inhibitors of SUMO2 protein-protein interaction, dose response, selectivity assay for SUMO1 interaction inhibitor project, biochemical, FRET, human SUMO2, uHTS hits (AID 624384); assay type: functional; conditions: read-out: IC50_Mean
[27] = target: T7, Small ubiquitin-related modifier 1 (Homo sapiens, UniProt P63165); experiment: inhibitors of SUMO1 partner interactions, dose response, biochemical, FRET (AID 624383); assay type: functional; conditions: read-out: IC50_Mean
[28] = target: T7, Small ubiquitin-related modifier 1; experiment: inhibitors of SUMO1 peptide binding, dose response, biochemical, fluorescence polarization, uHTS hits (AID 624382); assay type: functional; conditions: read-out: IC50_Mean
[29] = target: T8, Interleukin-8 (Homo sapiens, UniProt P10145); experiment: Dose Response confirmation of uHTS small molecule hits for cystic fibrosis induced NFkb Inhibitors in a PAF-induced IL8 counterscreen.; assay type: functional; conditions: read-out: IC50_Mean
[30] = target: T8, Interleukin-8; experiment: Dose Response confirmation of uHTS small molecule hits for cystic fibrosis induced NFkb Inhibitors in a TNFa-induced IL8 counterscreen.; assay type: functional; conditions: read-out: IC50_Mean
[31] = microbe, parasite or virus in culture; assay type: functional; conditions: Mycobacterium tuberculosis
[32] = AlphaScreen signal interference compounds, dose response, artefact control for ARNT-TACC3 interaction inhibitor project, biochemical, luminescence, cherry-pick (AID 651705); assay type: functional;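 note: AlphaScreen bead proximity signal that flags compounds interfering with the detection technology; potency reflects signal decrease which marks the compound as an assay artifact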
[33] = system: H9c2; experiment: cells; assay type: functional, cell-based; conditions: Rattus norvegicus, H9c2, Myocardium;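 note: confirmatory concentration-response retest of ultra-high-throughput screening hits for modulation of myocardial damage; cell death induced by hydrogen peroxide oxidative stress; compound pretreatment for 60 min then peroxide exposure for 2 h; potency is for protecting the cells against peroxide damage rather than for killing them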

T2 sequence (P65502 whole entry): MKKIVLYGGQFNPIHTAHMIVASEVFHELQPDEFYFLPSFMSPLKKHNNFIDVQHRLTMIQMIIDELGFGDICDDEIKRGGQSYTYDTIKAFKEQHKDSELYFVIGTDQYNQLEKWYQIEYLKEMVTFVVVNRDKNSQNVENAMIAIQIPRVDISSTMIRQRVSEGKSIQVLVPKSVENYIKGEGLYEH
T5 sequence (P08183 whole entry): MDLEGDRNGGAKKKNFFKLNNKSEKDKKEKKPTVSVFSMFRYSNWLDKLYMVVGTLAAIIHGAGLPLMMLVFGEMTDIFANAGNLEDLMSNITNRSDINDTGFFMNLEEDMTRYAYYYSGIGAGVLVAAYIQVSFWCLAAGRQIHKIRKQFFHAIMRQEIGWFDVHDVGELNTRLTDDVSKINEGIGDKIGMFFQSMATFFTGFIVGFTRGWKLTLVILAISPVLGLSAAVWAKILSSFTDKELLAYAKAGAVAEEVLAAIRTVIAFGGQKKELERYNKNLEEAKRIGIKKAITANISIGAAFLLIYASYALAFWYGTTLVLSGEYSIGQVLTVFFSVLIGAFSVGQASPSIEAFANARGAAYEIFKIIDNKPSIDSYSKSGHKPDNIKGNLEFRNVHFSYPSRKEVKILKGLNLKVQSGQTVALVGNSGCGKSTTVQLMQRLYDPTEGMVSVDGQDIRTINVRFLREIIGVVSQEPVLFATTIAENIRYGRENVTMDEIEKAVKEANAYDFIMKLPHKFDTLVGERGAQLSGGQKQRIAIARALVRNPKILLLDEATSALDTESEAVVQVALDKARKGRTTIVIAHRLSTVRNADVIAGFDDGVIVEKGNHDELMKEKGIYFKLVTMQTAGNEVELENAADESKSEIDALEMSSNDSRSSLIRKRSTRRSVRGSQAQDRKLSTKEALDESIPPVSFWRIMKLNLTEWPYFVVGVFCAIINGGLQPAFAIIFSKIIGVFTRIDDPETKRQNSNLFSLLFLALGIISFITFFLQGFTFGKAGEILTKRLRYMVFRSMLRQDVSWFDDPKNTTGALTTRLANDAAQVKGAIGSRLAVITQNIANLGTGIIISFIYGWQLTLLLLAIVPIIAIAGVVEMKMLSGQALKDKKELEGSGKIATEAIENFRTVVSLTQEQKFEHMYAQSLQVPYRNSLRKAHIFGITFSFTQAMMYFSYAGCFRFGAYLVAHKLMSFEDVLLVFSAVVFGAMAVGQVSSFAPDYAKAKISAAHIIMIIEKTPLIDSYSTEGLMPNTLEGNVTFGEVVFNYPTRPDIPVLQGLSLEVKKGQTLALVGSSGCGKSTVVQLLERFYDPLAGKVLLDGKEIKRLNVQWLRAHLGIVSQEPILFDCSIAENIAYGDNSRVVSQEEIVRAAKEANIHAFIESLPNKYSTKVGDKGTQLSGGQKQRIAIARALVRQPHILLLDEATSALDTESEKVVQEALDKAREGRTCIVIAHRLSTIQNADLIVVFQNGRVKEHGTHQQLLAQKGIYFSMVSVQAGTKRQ
T7 sequence (P63165 whole entry): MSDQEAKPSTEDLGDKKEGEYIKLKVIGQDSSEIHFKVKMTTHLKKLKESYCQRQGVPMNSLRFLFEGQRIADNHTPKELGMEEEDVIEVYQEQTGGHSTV
T8 sequence (P10145 whole entry): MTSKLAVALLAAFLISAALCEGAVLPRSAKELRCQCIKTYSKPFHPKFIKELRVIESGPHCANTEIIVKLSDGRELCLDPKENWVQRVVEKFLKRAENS
Voltage-gated inwardly rectifying potassium channel KCNH2, sequence (Q12809 whole entry): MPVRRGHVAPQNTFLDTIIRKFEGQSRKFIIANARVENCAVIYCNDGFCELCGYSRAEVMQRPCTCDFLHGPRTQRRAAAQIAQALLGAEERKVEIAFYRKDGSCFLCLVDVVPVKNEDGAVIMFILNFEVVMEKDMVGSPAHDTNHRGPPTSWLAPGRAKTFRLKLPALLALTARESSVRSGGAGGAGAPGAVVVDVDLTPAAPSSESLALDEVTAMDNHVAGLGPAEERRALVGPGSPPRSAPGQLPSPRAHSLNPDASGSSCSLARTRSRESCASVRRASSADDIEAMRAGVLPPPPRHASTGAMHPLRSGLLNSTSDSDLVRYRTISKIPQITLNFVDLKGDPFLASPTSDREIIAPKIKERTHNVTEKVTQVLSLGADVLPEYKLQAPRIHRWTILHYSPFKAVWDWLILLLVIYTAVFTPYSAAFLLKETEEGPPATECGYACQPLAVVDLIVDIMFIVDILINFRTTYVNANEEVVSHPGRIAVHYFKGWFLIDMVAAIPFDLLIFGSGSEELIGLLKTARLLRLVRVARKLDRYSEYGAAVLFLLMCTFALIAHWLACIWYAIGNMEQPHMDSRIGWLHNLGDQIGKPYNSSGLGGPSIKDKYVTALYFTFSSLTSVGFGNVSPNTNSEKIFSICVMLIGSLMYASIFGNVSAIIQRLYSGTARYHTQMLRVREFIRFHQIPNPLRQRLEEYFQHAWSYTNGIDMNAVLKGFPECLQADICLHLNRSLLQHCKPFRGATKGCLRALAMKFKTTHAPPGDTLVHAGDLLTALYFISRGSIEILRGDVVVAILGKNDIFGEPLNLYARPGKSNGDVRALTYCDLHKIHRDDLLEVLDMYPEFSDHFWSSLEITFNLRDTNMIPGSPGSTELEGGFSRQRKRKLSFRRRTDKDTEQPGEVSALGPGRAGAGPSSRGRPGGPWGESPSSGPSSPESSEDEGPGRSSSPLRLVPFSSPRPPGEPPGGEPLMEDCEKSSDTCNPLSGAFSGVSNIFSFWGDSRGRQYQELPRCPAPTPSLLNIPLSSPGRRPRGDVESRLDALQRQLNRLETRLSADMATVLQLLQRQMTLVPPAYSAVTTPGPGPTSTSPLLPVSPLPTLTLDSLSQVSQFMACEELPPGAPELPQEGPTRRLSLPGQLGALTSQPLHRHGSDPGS
Nonstructural protein 1, sequence (Q194T2 whole entry): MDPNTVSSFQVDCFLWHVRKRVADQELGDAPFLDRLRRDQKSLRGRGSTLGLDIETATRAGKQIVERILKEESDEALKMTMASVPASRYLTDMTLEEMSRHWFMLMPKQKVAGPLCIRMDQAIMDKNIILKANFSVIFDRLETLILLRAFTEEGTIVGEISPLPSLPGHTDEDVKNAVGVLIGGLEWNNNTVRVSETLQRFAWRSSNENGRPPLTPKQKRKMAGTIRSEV
Delta-type opioid receptor, sequence (P41143 whole entry): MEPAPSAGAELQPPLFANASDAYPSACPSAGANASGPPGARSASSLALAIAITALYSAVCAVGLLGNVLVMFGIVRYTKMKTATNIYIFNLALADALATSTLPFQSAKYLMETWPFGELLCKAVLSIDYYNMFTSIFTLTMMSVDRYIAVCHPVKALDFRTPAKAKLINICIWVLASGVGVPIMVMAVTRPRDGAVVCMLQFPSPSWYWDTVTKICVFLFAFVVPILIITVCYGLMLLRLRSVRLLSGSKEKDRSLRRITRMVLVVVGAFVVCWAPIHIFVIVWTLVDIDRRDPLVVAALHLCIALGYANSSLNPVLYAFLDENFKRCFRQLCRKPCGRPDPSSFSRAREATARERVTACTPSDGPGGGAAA
Aryl hydrocarbon receptor, sequence (P35869 whole entry): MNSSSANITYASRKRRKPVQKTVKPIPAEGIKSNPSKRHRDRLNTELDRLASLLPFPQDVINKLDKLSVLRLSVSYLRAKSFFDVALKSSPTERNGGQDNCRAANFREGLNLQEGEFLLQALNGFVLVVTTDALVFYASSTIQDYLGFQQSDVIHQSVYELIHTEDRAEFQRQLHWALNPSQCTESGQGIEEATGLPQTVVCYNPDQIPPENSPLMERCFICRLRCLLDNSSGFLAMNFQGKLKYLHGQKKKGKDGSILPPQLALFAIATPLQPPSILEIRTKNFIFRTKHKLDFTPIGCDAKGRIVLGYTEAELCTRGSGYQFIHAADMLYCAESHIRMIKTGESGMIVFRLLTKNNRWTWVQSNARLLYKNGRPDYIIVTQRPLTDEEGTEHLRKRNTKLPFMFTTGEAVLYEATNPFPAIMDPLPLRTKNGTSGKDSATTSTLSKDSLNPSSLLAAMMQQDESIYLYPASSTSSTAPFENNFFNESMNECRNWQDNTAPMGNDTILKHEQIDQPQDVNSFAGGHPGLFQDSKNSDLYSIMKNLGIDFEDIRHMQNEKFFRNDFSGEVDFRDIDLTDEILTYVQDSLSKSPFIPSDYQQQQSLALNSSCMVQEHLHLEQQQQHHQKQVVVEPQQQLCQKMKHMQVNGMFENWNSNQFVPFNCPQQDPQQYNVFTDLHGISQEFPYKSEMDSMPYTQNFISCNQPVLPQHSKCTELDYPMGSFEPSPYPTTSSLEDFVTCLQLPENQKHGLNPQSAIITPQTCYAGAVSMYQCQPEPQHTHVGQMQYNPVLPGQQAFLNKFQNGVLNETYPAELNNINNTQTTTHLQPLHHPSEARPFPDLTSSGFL
Glutathione-S-transferase, sequence (Q26513 whole entry): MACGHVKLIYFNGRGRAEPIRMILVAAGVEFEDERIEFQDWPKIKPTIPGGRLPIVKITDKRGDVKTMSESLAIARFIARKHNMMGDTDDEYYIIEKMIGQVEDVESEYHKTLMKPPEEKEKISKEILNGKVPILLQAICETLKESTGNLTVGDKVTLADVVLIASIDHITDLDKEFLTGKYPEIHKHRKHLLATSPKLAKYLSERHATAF
Cytochrome P450 3A4, sequence (P08684 whole entry): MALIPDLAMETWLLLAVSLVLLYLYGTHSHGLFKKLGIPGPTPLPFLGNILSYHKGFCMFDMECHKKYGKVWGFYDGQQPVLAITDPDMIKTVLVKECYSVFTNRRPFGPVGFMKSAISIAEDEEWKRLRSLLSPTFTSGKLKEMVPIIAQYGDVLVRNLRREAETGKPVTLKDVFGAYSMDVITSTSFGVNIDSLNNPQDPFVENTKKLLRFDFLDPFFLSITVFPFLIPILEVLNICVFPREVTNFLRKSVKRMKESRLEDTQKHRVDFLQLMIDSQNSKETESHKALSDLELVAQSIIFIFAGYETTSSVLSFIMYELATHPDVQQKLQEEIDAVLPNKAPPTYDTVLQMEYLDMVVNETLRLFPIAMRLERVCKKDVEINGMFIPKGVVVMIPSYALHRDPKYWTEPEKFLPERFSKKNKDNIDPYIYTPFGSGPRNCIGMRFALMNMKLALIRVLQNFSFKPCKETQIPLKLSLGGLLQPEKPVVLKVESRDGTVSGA

## CCOc1ccc(Nc2c3ccccc3nc3ccccc23)cc1
[1]
  CC50: 6.47 µM (active)
[2]
  AC50: 1.57 µM (active)
[3]
  EC50: > 92.5 µM (inactive)
[4]
  AC50: 46.9 µM (active)
[5]
  EC50: > 92.5 µM (inactive)
[6]
  AC50: 7.28 µM (active)
[7]
  EC50: 43.8 µM (inactive)
[8]
  AC50: 5.05 µM (active)

## Cc1ccc(S(=O)(=O)Nc2ccc(Nc3nccn4c(-c5ccc6ccccc6c5)cnc34)cc2)cc1
[9]
  IC50: 16.3 µM (active)
[10]
  IC50: 9.78 µM (active)

## CC(C)Nc1ccc(Nc2ccccc2)cc1
[11]
  AC50: 15.8 µM (inconclusive)
[12]
  EC50: > 60 µM (not active)
[13]
  IC50: 9.01 µM (active)
[14]
  IC50: 19.2 µM (active)
[15]
  IC50: > 80 µM (inactive)
[16]
  AC50: 25.1 µM (inconclusive)
[17]
  CC50: 26.2 µM (active)
[18]
  EC50: 2.52 µM (active)
[19]
  AC50: 127 µM (active)
[20]
  IC50: 58 µM (active)
[21]
  AC50: 44.7 µM (inconclusive)
[22]
  EC50: 76.4 µM (active)
[8]
  AC50: 6.94 µM (active)

## Cc1nc2ncnn2c(N2CCN(C(=O)c3ccco3)CC2)c1Cc1ccccc1
[23]
  EC50: 2.14 µM (active)
[24]
  EC50: 4.97 µM (active)

## C[C@@H](NC(=O)c1ncn2c1c(O)nc1ccc(Br)cc12)c1ccccc1
[25]
  IC50: 25 µM (inactive)

## N#C/C(=C(\O)Nc1cccc(Cl)c1)c1nc2ccccc2[nH]1
[26]
  IC50: > 66 µM (inactive)
[27]
  IC50: 52.6 µM (inactive)
[28]
  IC50: 66 µM (inactive)

## Cc1ccccc1C(=O)N1CCN(c2ccc(NC(=O)c3cccc(OC(C)C)c3)cc2)CC1
[29]
  IC50: 39.6 µM (inactive)
[30]
  IC50: > 79 µM (inactive)

## CCc1cc(C(=O)Nc2nc(-c3ccccn3)cs2)sc1C
[31]
  CC50: 32 µM (active)
[32]
  AC50: 103 µM (active)
[33]
  IC50: > 79 µM (inactive)
